Test results reported in patent US20040014768A1, “Chromenone derivatives and their use for treating diseases in conjunction with 5-hta1receptors and/or dopamine d2 receptors” (priority 2000, published 2004).

Row | melting point [°C] | Structure (SMILES)
1 | 225 to 228 | COc1cc2oc(=O)c(C)c(C)c2cc1OCCCN1CCN(c2cccc3cccnc23)CC1 [Example 5, 7-methoxy-3,4-dimethyl-6-[3-(4-quinolin-8-ylpiperazin-1-yl)propoxy]-chromen-2-one]
2 | 231 to 237 | COc1cc2oc(=O)c(C)c(C)c2cc1OCCN1CCN(c2cccc3[nH]ccc23)CC1.Cl.Cl
3 | 164 to 165 | COc1cc2oc(=O)c(C)c(C)c2cc1OCCN1CCN(c2cccc3cccnc23)CC1 [Example 4, 7-methoxy-3,4-dimethyl-6-[2-(4-quinolin-8-ylpiperazin-1-yl)ethoxy]chromen-2-one]
4 | 168 to 170 | COc1cc2oc(=O)c(C)c(C)c2cc1OCCN1CCN(c2cccc3ccc(C)nc23)CC1 [Example 4, 7-methoxy-3,4-dimethyl-6-{2-[4-(2-methylquinolin-8-yl)piperazin-1-yl]-ethoxy}chromen-2-one]
5 | 201 to 202 | COc1cc2oc(=O)c(C)c(C)c2cc1OCCN1CCN(c2cccc3[nH]ccc23)CC1 [Example 3, 6-{2-[4-(1H-indol-4-yl)piperazin-1-yl]ethoxy}-7-methoxy-3,4-dimethylchromen-2-one]
6 | 193 to 195 | COc1cc2oc(=O)c(C)c(C)c2cc1OCCCN1CCN(c2cccc3[nH]ccc23)CC1 [Example 5, 6-{3-[4-(1H-indol-4-yl)piperazin-1-yl]propoxy}-7-methoxy-3,4-dimethyl-chromen-2-one]
